pIC50: −log10 of the molar value.

Chain of Ec YeaWX lysate (P0ABR7 whole entry): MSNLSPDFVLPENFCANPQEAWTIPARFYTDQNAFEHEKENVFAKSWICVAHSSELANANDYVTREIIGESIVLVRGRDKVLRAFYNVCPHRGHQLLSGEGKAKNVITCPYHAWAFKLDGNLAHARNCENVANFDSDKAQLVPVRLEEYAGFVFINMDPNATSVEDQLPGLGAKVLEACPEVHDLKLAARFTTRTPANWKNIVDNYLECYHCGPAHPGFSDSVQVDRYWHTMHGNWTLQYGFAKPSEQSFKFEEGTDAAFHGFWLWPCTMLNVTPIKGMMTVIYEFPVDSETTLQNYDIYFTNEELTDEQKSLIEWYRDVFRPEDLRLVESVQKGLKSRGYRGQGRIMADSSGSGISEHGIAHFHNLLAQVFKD

The assay addresses Ec YeaWX lysate (Escherichia coli (strain K12), UniProt P0ABR7). The assay is described as follows: Inhibition of formation of TMA from carnitine in Ec YeaWX lysate (d9-carnitine to d9-TMA, LC-MS/MS). It counts as biochemical. The note with it: conversion of carnitine to TMA; Ec YeaWX lysate 2.0 mg/mL protein, 250 μM NADPH, 50 μM d9-carnitine chloride, 37° C., two hours; read-out: TMA Inhibition (IC50, mol/L). The text has this: EXAMPLE 3 provides an exemplary assay for identifying and characterizing compounds from Formula (I), or Formula (II), that inhibit the formation of TMA from carnitine.
Escherichia coli BL21*DE3::pET30a-Ec yeaWX #1 (Ec YeaWX) strain was generated as described below. The contiguous Escherichia coli coding sequence yeaW (equivalent to uniprot ID P0ABR7.1 (YeaW) (SEQ ID NO: 2)) and yeaX (equivalent to uniprot ID P76254.1 (YeaX) (SEQ ID NO: 3)) were PCR amplified from Escherichia coli strain K-12 substr. BW25113 genomic DNA. PCR primers (YeaW_Nde I_fwd2-SEQ ID NO: 4; YeaX_rev2-SEQ ID NO: 5) were designed to create a 5′ NdeI restriction site including the ATG start codon of yeaW and create a PstI restriction site just 3′ of the yeaX TAG stop codon.
The amplicon was restricted and cloned into the NdeI and PstI sites of the plasmid pET30a downstream of the inducible T7 promoter. A blast search of the resulting cloned amplicon DNA sequence (SEQ ID NO: 1) corresponded to nucleotide range 1884665 to 1886810 of Escherichia coli str. K-12 substr. MG1655 (NCBI Accession #NC_000913). The construct was transformed and grown in E. coli BL21(DE3) and the recombinant yeaWX overexpressed by addition of isopropyl β-D-1-thiogalactopyranoside (IPTG).
The bacteria were grown aerobically in 50 mL LB broth (Difco #244620; 10 g/L Tryptone, 5 g/L yeast extract, 10 g/L NaCl, 50 μg/mL kanamycin), in a 500 mL Erlenmeyer flask. The cultures were inoculated from glycerol stock of BL21*DE3::pET30a-Ec yeaWX #1 strain. Strains were cultured all day at 37° C. with 250 rpm shaking. Two 300 mL Minimal M9 Medium (6 g/L Na2HPO4, 3 g/L KH2PO4, 0.5 g/L NaCl, 1 g/L NH4Cl, 0.1 mM CaCl2, 1 mM MgSO4, 0.2% Dextrose, 1 mg/L Thiamine, 50 μg/mL kanamycin), in 1 L Erlenmeyer flasks, were inoculated with 5 mL of the LB broth day culture and cultured overnight at 37° C. with 250 rpm shaking. The overnight cultures were used to inoculate twelve 1 L cultures of Minimal M9 media in 2.8 L fluted Erlenmeyer flasks to an OD 600 nm of 0.05 (typically approximately 28 mLs), which were grown at 37° C. with 250 rpm shaking until an OD600 of approximately 0.4 was reached. Expression of YeaWX was induced with 1 mM IPTG and the induced cultures were further grown overnight at 37° C. with 250 rpm shaking. The biomass was pelleted by centrifugation at 6000×g for 12 minutes at 4° C. The cell pellet was suspended in 240 mL of ice-cold 1× Phosphate Buffered Saline (Ca^2+ and Mg^2+ free). Ninety micrograms of Lysozyme (Sigma #L6876 Lot #SLBG8654V; Sigma-Aldrich Corp., St. Louis, Mo.) was added and incubated with 320 rpm shaking for 30 minutes at 4° C. Lysis was achieved via French press with a 4° C. prechilled 1″ diameter chamber at 1000 psi (high ratio; internal PSI equivalent ˜16000). The lysate was centrifuged at 6,000×g for 12 minutes at 4° C. to pellet extra debris. Glycerol was added to the centrifuged lysate supernatant at a final concentration of 15% A protein concentration of the centrifuged lysate supernatant was determined by a BCA Protein Assay Kit (Pierce #23225), typically in the 2.5 to 4.5 mg/ml range. The centrifuged Ec YeaWX lysate supernatant was aliquoted into 20 mL volumes and stored frozen at −80° C.
Ec YeaWX lysate was diluted to 2.0 mg/mL protein with 1× Dulbecco's phosphate buffered saline (DPBS) plus 15% glycerol. Nicotinamide adenine dinucleotide phosphate (NADPH) was added to 250 μM. […]
Regarding `CC[N+](C)(CC)CCCN=C=S` [Compound 2, 3-Isothiocyanato-N,N-diethyl-N-methylpropanaminium iodide], the pIC50 was 3.70.
With `CCOC(=O)C(=O)C[N+](C)(C)CCN=C=S` [Compound 5, N-(Ethoxypropyl-2,3-dione)-2-isothiocyanato-N,N-dimethylethan-1-aminium bromide] the figure was 2.26.
Regarding `CCOC(=O)C(=O)C[N+](C)(C)CCCN=C=S` [Compound 6], the pIC50 was 3.70.
For `CC[N+](CC)(CCBr)CCCN=C=S` [Compound 7, N-(2-Bromoethyl)-3-isothiocyanato-N,N-diethylpropan-1-aminium triflate], the pIC50 was 3.77.
Take `CC[N+](CC)(CC#N)CCCN=C=S` [Compound 9, N-Cyanomethyl-3-isothiocyanato-N,N-diethylpropan-1-aminium bromide]: the pIC50 was 3.22.

(Values after US10213407B2, “Compounds and methods for inhibiting production of trimethylamine” (The Procter & Gamble Company, priority 2015, dated 2019).)
